Experimental findings from ChEMBL document CHEMBL3875177, “Design, synthesis and biological evaluation of [1,2,3]triazolo[4,5-d]pyrimidine derivatives possessing a hydrazone moiety as antiproliferative agents” (Eur J Med Chem, 2016) are described below.

SMILES strings stand for the structures. Active and inactive are the calls of the source. No cut-off for these calls is given here.

Experiment [1] in a line: (§1) Antiproliferative activity against human MGC803 cells after 72 hrs by MTT assay. The settings on record: MGC-803, 72 h. The class given is functional, cell-based.
A short description of experiment [2]: Antiproliferative activity against human EC109 cells after 72 hrs by MTT assay. The class given is functional, cell-based. The settings on record: ECa-109, 72 h.
Experiment [3] in a line: Antiproliferative activity against human MCF7 cells after 72 hrs by MTT assay. The class given is functional, cell-based. The conditions noted are these: MCF7, 72 h.
A short description of experiment [4]: Antiproliferative activity against human GES-1 cells after 72 hrs by MTT assay. The conditions noted are these: GES1, 72 h. The class given is cell-based.
The nature of experiment [5]: Inhibition of colony formation in human MGC803 cells assessed as reduction in foci formation at 0.8 uM after 10 days by crystal violet staining based assay relative to control. The settings on record: MGC-803, 240 h. The class given is functional.
Experiment [6] deals with MGC-803. Briefly: Induction of apoptosis in human MGC803 cells at 2 uM after 24 hrs by Annexin-V FITC/propidium iodide staining based flow cytometry (reference value: 1.8%). The class given is functional.
For experiment [7], the target named is Lysine-specific histone demethylase 1A (Homo sapiens) (UniProt O60341). As to the kind of experiment: Inhibition of LSD1 (unknown origin) at 10 uM relative to control.
The test system of experiment [8] is MGC-803. As to the kind of experiment: Induction of apoptosis in human MGC803 cells assessed as increase in Bak protein expression after 24 hrs by Western blot method. The class given is functional, cell-based.
The test system of experiment [9] is MGC-803. Briefly: Induction of apoptosis in human MGC803 cells at 4 uM after 24 hrs by Annexin-V FITC/propidium iodide staining based flow cytometry (reference value: 1.8%). The class given is functional.
Experiment [10] concerns MGC-803. As to the kind of experiment: Induction of apoptosis in human MGC803 cells assessed as increase in caspase-9 protein expression at 1 to 4 uM after 24 hrs by Western blot method. The class given is functional, cell-based.
The subject of experiment [11] is MGC-803. Briefly: Induction of apoptosis in human MGC803 cells after 24 hrs by Annexin-V FITC/propidium iodide staining based flow cytometry. The class given is functional, cell-based.
In experiment [12] the test system is MGC-803. As to the kind of experiment: Induction of apoptosis in human MGC803 cells assessed as increase in caspase-3 protein expression at 1 to 4 uM after 24 hrs by Western blot method. The class given is functional, cell-based.
Experiment [13] has as its system MGC-803. As to the kind of experiment: Induction of apoptosis in human MGC803 cells at 1 uM after 24 hrs by Annexin-V FITC/propidium iodide staining based flow cytometry (reference value: 1.8%). The class given is functional.
The test system of experiment [14] is MGC-803. Briefly: Induction of apoptosis in human MGC803 cells assessed as cell rounding at 1 to 4 uM after 24 hrs by Hoechst 33258 staining based fluorescence microscopic method. The class given is functional.
Experiment [15] has as its system MGC-803. As to the kind of experiment: Induction of apoptosis in human MGC803 cells assessed as formation of apoptotic bodies at 1 to 4 uM after 24 hrs by Hoechst 33258 staining based fluorescence microscopic method. The class given is functional, cell-based.
In experiment [16] the test system is MGC-803. Described as §1. The class given is functional, cell-based.
In experiment [17] the test system is MGC-803. As to the kind of experiment: Induction of apoptosis in human MGC803 cells assessed as decrease in Mcl1 protein expression at 1 to 4 uM after 24 hrs by Western blot method. The class given is functional, cell-based.
The test system of experiment [18] is MGC-803. As to the kind of experiment: Induction of apoptosis in human MGC803 cells assessed as chromatin shrinkage at 1 to 4 uM after 24 hrs by Hoechst 33258 staining based fluorescence microscopic method. The class given is functional, cell-based.
The test system of experiment [19] is MGC-803. As to the kind of experiment: Induction of mitochondrial membrane potential loss in human MGC803 cells at 4 uM after 24 hrs by JC-1 staining based flow cytometry (reference value: 49.8%). The class given is functional.
In experiment [20] the test system is MGC-803. Briefly: Induction of apoptosis in human MGC803 cells assessed as decrease in Bcl2 protein expression at 1 to 4 uM after 24 hrs by Western blot method. The class given is functional, cell-based.
Experiment [21] has as its system MGC-803. As to the kind of experiment: Induction of apoptosis in human MGC803 cells assessed as increase in PUMA protein expression after 24 hrs by Western blot method. The class given is functional, cell-based.
The subject of experiment [22] is MGC-803. As to the kind of experiment: Induction of mitochondrial membrane potential loss in human MGC803 cells after 24 hrs by JC-1 staining based flow cytometry. The class given is functional, cell-based.
Experiment [23] deals with MGC-803. As to the kind of experiment: Induction of apoptosis in human MGC803 cells assessed as increase in Bax protein expression after 24 hrs by Western blot method. The class given is functional, cell-based.

On to `C#CCSc1nc(N/N=C/c2ccc(N(C)C)cc2)c2nnn(Cc3ccccc3)c2n1`, for which the values for the IC50 in experiment [1], in [2] and in experiment [3] were 7.62 µM, 31.2 µM and over 64 µM, respectively.
For `CCCSc1nc(N/N=C/c2ccc(C)cc2)c2nnn(Cc3ccccc3)c2n1` the same measures were over 64 µM, over 64 µM and over 64 µM.
For `O=c1[nH]cc(F)c(=O)[nH]1` [FLUOROURACIL] the same measures were 7.35 µM, 10.6 µM and 9.25 µM.
Turning to `CCCSc1nc(N/N=C(\C)c2ccccc2O)c2nnn(Cc3ccc(O)cc3)c2n1`, the IC50 in experiment [1] was found to be 7.68 µM; in experiment [2], 15.9 µM; in [3], 9.52 µM.
For `CCCSc1nc(N/N=C/c2ccc3ccccc3c2)c2nnn(Cc3ccccc3)c2n1` the same measures were over 64 µM, over 64 µM and over 64 µM.
As for `CCCSc1nc(N/N=C/c2c(O)ccc3ccccc23)c2nnn(Cc3ccccc3)c2n1`, the IC50 in [4] stood at 13.1 µM; in experiment [1] it was 3.71 µM; in [2], 9.29 µM; in experiment [3], 6.4 µM.
For `CCCSc1nc(N/N=C(\C)c2ccc(Br)cc2)c2nnn(Cc3ccccc3)c2n1`, the IC50 in [1] is 6.02 µM; in experiment [2] it was 4.67 µM; in experiment [3] it was 13 µM.
For `CCCSc1nc(N/N=C/c2cccs2)c2nnn(Cc3ccccc3)c2n1` the same measures were over 64 µM, over 64 µM and over 64 µM.
For `CCCSc1nc(N/N=C(\C)c2ccccc2O)c2nnn(Cc3ccc(Cl)cc3)c2n1` the same measures were 7.1 µM, 11.2 µM and 42.6 µM.
For `CCCSc1nc(N/N=C(\C)c2ccc(OC)cc2)c2nnn(Cc3ccccc3)c2n1` the same measures were 44.3 µM, over 64 µM and over 64 µM.
As for `C/C(=N\Nc1nc(SCc2ccccc2)nc2c1nnn2Cc1ccccc1)c1ccccc1O`, the inhibition at 0.8 µM in experiment [5] came to 83%. In addition, the Activity entry in the experiment with MGC-803 [6] is “<=24.8%”; in the experiment with MGC-803 [8], “Dose-dependent effect”; in the experiment on MGC-803 [9], “<=53.9%”; in the experiment on MGC-803 [11], “Dose-dependent effect”; with MGC-803 [13] it was “<=8.7%”; with MGC-803 [16], “Dose-dependent effect”. The Activity entry in the experiment with MGC-803 [19] was “<=90.4%”; in the experiment on MGC-803 [21], “Dose-dependent effect”; in the experiment on MGC-803 [22], “Dose-dependent effect”; in the experiment on MGC-803 [23], “Dose-dependent effect”. The IC50 came to 56.2 µM in [4], 0.85 µM in [1], 1.77 µM in experiment [2] and 0.95 µM in experiment [3]. The molecule further gave an inhibition in [7] of 26.8%. The result in the experiment on MGC-803 [10], in the experiment with MGC-803 [12], in the experiment with MGC-803 [14], in the experiment with MGC-803 [15], in the experiment with MGC-803 [17] and in the experiment on MGC-803 [18] was Active. The result in the experiment with MGC-803 [20] was Active.
As for `CCCSc1nc(N/N=C/c2ccc(N(C)C)cc2)c2nnn(Cc3ccccc3)c2n1`, the IC50 in experiment [1] is 13.1 µM; in [2], 20 µM; in experiment [3], 12.2 µM.
Regarding `C#CCSc1nc(N/N=C/c2cc(OC)c(OC)c(OC)c2)c2nnn(Cc3ccccc3)c2n1`, the IC50 in experiment [4] came to 25.6 µM; in experiment [1], 4.67 µM; in experiment [2] it was 6.54 µM; in [3] it was 17 µM.
For `CCCSc1nc(N/N=C(\C)c2ccccc2O)c2nnn(Cc3ccco3)c2n1` the same measures were 33.3 µM, 4.76 µM, 5.76 µM and 29 µM.
Regarding `CCCSc1nc(N/N=C/c2cccc(Cl)c2)c2nnn(Cc3ccccc3)c2n1`, the IC50 in [1], in experiment [2] and in experiment [3] was over 64 µM in each case.
As to `COc1cc(/C=N/Nc2nc(SCc3ccccc3)nc3c2nnn3Cc2ccccc2)cc(OC)c1OC`, the IC50 in experiment [4] worked out at 48.3 µM; in experiment [1] it was 1.32 µM; in experiment [2], 4.4 µM; in [3], 13.5 µM.
In the case of `CCCSc1nc(N/N=C/c2ccc(Cl)cc2)c2nnn(Cc3ccccc3)c2n1`, the IC50 in [1], in [2] and in [3] was over 64 µM each time.
Regarding `CCCSc1nc(N/N=C(\C)c2ccccc2O)c2nnn(Cc3ccc(Br)cc3)c2n1`, the IC50 is 11.3 µM in experiment [1], 36.1 µM in [2] and 15.6 µM in experiment [3].
For `CCCSc1nc(N/N=C(\C)c2ccccc2O)c2nnn(CCc3cccs3)c2n1` the same measures were 16.4 µM, 30.9 µM and over 64 µM.
For `CCCSc1nc(N/N=C/c2ccc(Br)cc2)c2nnn(Cc3ccccc3)c2n1` the same measures were 34.9 µM, over 64 µM and over 64 µM.
For `CCCSc1nc(N/N=C(\C)c2ccccc2)c2nnn(Cc3ccccc3)c2n1` the same measures were 25.4 µM, 32.2 µM and 32.1 µM.
On to `CCCSc1nc(N/N=C(\C)c2ccccc2O)c2nnn(Cc3ccc(F)cc3)c2n1`, for which the IC50 in experiment [1] was 11 µM; in [2], 21.9 µM; in experiment [3] it was over 64 µM.
For `CCCSc1nc(N/N=C/c2ccccc2F)c2nnn(Cc3ccccc3)c2n1` the same measures were over 64 µM, over 64 µM and over 64 µM.
For `C#CCSc1nc(N/N=C/c2c(O)ccc3ccccc23)c2nnn(Cc3ccccc3)c2n1` the same measures were 10.5 µM, 6.52 µM and 8.97 µM.
For `CCCSc1nc(N/N=C/c2ccccc2)c2nnn(Cc3ccccc3)c2n1` the same measures were over 64 µM, over 64 µM and over 64 µM.
In the case of `CCCSc1nc(N/N=C(\C)c2ccccc2O)c2nnn(Cc3ccccc3)c2n1`, the IC50 in [4] came to 32.3 µM; in [1], 2.31 µM; in [2], 11.1 µM; in experiment [3] it was 11 µM.
For `CCCSc1nc(N/N=C/c2cc(OC)c(OC)c(OC)c2)c2nnn(Cc3ccccc3)c2n1` the same measures were over 64 µM, 9.41 µM, 4.06 µM and over 64 µM.
Take `CCCSc1nc(N/N=C/c2c[nH]c3ccccc23)c2nnn(Cc3ccccc3)c2n1`: the half-inhibitory concentration (IC50) in experiment [1] is 7.41 µM; in [2] it was 8.69 µM; in experiment [3] it was 9.01 µM.
For the molecule `C#CCSc1nc(N/N=C(\C)c2ccccc2O)c2nnn(Cc3ccccc3)c2n1`, the IC50 worked out at 3.82 µM in experiment [1], 5.25 µM in experiment [2] and 11.2 µM in experiment [3].
For `CCCSc1nc(N/N=C(\C)c2ccccc2O)c2nnn(CCO)c2n1` the same measures were 47.1 µM, 60.3 µM and over 64 µM.
For `CCCSc1nc(N/N=C/c2ccccc2Cl)c2nnn(Cc3ccccc3)c2n1` the same measures were 10.9 µM, 6.18 µM and 13.8 µM.
For `CCCSc1nc(N/N=C(\C)c2ccccc2O)c2nnn(Cc3cccc(Cl)c3)c2n1` the same measures were 6.5 µM, 13 µM and 39.9 µM.
`CCCSc1nc(N/N=C/c2ccc([N+](=O)[O-])cc2)c2nnn(Cc3ccccc3)c2n1`: the IC50 was determined as 10.1 µM in experiment [1], 6.64 µM in [2] and 11 µM in [3].
For `CCCSc1nc(N/N=C/c2cccnc2)c2nnn(Cc3ccccc3)c2n1` the same measures were 38.1 µM, over 64 µM and 58.7 µM.
For `CCCSc1nc(N/N=C(\C)c2ccc(O)cc2)c2nnn(Cc3ccccc3)c2n1` the same measures were 16.7 µM, 32.5 µM and 21.6 µM.
For `CCCSc1nc(N/N=C(\C)c2ccccc2O)c2nnn(Cc3ccccc3Cl)c2n1` the same measures were 35 µM, over 64 µM and over 64 µM.
